{"source": "PubChem BioAssay AID1259407", "about": "(Chemical Carcinogenesis Research Information System (CCRIS), 2018)", "tested_on": "CCRIS mutagenicity, Ames/micronucleus/aberration tests", "experiment": "CCRIS mutagenicity studies", "note": "Active and inactive are the calls of the source. No rule for the calls is given here.", "data": [{"smiles": "COC(C)(C)C", "values": [{"measurement": "mutagenic call", "setting": "Test System: AMES SALMONELLA TYPHIMURIUM, Strain/Indicator: TA98, Metabolic Activation: NONE", "result": "inactive; negative"}, {"measurement": "mutagenic call", "setting": "Test System: AMES SALMONELLA TYPHIMURIUM, Strain/Indicator: TA98, Metabolic Activation: NONE, Method: MICROSUSPENSION", "result": "inactive; negative"}, {"measurement": "mutagenic call", "setting": "Test System: AMES SALMONELLA TYPHIMURIUM, Strain/Indicator: TA98, Metabolic Activation: NONE, Method: STANDARD PLATE", "result": "inactive; negative"}, {"measurement": "mutagenic call", "setting": "Test System: AMES SALMONELLA TYPHIMURIUM, Strain/Indicator: TA98, Metabolic Activation: RAT LIVER S-9", "result": "inactive; negative"}, {"measurement": "mutagenic call", "setting": "Test System: AMES SALMONELLA TYPHIMURIUM, Strain/Indicator: TA98, Metabolic Activation: RAT LIVER S-9, AROCLOR 1254, Method: STANDARD PLATE", "result": "inactive; negative"}, {"measurement": "mutagenic call", "setting": "Test System: AMES SALMONELLA TYPHIMURIUM, Strain/Indicator: TA98, Metabolic Activation: RAT, LIVER, S-9, AROCLOR 1254, Method: MICROSUSPENSION", "result": "inactive; negative"}, {"measurement": "mutagenic call", "setting": "Test System: AMES SALMONELLA TYPHIMURIUM, Strain/Indicator: TA100, Metabolic Activation: NONE", "result": "inactive; negative"}, {"measurement": "mutagenic call", "setting": "Test System: AMES SALMONELLA TYPHIMURIUM, Strain/Indicator: TA100, Metabolic Activation: NONE, Method: MICROSUSPENSION", "result": "inactive; negative"}, {"measurement": "mutagenic call", "setting": "Test System: AMES SALMONELLA TYPHIMURIUM, Strain/Indicator: TA100, Metabolic Activation: NONE, Method: STANDARD PLATE", "result": "inactive; negative"}, {"measurement": "mutagenic call", "setting": "Test System: AMES SALMONELLA TYPHIMURIUM, Strain/Indicator: TA100, Metabolic Activation: RAT LIVER S-9", "result": "inactive; negative"}, {"measurement": "mutagenic call", "setting": "Test System: AMES SALMONELLA TYPHIMURIUM, Strain/Indicator: TA100, Metabolic Activation: RAT LIVER S-9, AROCLOR 1254, Method: STANDARD PLATE", "result": "inactive; negative"}, {"measurement": "mutagenic call", "setting": "Test System: AMES SALMONELLA TYPHIMURIUM, Strain/Indicator: TA100, Metabolic Activation: RAT, LIVER, S-9, AROCLOR 1254, Method: MICROSUSPENSION", "result": "inactive; negative"}, {"measurement": "mutagenic call", "setting": "Test System: AMES SALMONELLA TYPHIMURIUM, Strain/Indicator: TA102, Metabolic Activation: NONE, Method: STANDARD PLATE", "result": "inactive; negative"}, {"measurement": "mutagenic call", "setting": "Test System: AMES SALMONELLA TYPHIMURIUM, Strain/Indicator: TA102, Metabolic Activation: RAT, LIVER, S-9, PHENOBARBITAL-BETA-NAPHTHOFLAVONE, Method: STANDARD PLATE", "result": "inactive; negative"}, {"measurement": "mutagenic call", "setting": "Test System: AMES SALMONELLA TYPHIMURIUM, Strain/Indicator: TA104, Metabolic Activation: NONE, Method: MICROSUSPENSION", "result": "inactive; negative"}, {"measurement": "mutagenic call", "setting": "Test System: AMES SALMONELLA TYPHIMURIUM, Strain/Indicator: TA104, Metabolic Activation: RAT, LIVER, S-9, AROCLOR 1254, Method: MICROSUSPENSION", "result": "inactive; negative"}, {"measurement": "mutagenic call", "setting": "Test System: AMES SALMONELLA TYPHIMURIUM, Strain/Indicator: TA1535, Metabolic Activation: NONE, Method: MICROSUSPENSION", "result": "inactive; negative"}, {"measurement": "mutagenic call", "setting": "Test System: AMES SALMONELLA TYPHIMURIUM, Strain/Indicator: TA1535, Metabolic Activation: RAT, LIVER, S-9, AROCLOR 1254, Method: MICROSUSPENSION", "result": "inactive; negative"}, {"measurement": "mutagenic call", "setting": "Test System: Ames Salmonella typhimurium, Strain/Indicator: TA98, Metabolic Activation: None, Method: Plate incorporation", "result": "inactive; negative"}, {"measurement": "mutagenic call", "setting": "Test System: Ames Salmonella typhimurium, Strain/Indicator: TA98, Metabolic Activation: None, Method: Preincubation", "result": "inactive; negative"}, {"measurement": "mutagenic call", "setting": "Test System: Ames Salmonella typhimurium, Strain/Indicator: TA98, Metabolic Activation: Rat, Liver, S-9, Method: Plate incorporation", "result": "inactive; negative"}, {"measurement": "mutagenic call", "setting": "Test System: Ames Salmonella typhimurium, Strain/Indicator: TA98, Metabolic Activation: Rat, Liver, S-9, Method: Preincubation", "result": "inactive; negative"}, {"measurement": "mutagenic call", "setting": "Test System: Ames Salmonella typhimurium, Strain/Indicator: TA100, Metabolic Activation: None, Method: Plate incorporation", "result": "inactive; negative"}, {"measurement": "mutagenic call", "setting": "Test System: Ames Salmonella typhimurium, Strain/Indicator: TA100, Metabolic Activation: None, Method: Preincubation", "result": "inactive; negative"}, {"measurement": "mutagenic call", "setting": "Test System: Ames Salmonella typhimurium, Strain/Indicator: TA100, Metabolic Activation: Rat, Liver, S-9, Method: Plate incorporation", "result": "inactive; negative"}, {"measurement": "mutagenic call", "setting": "Test System: Ames Salmonella typhimurium, Strain/Indicator: TA100, Metabolic Activation: Rat, Liver, S-9, Method: Preincubation", "result": "inactive; negative"}, {"measurement": "mutagenic call", "setting": "Test System: Ames Salmonella typhimurium, Strain/Indicator: YG1041, Metabolic Activation: None, Method: Plate incorporation", "result": "inactive; negative"}, {"measurement": "mutagenic call", "setting": "Test System: Ames Salmonella typhimurium, Strain/Indicator: YG1041, Metabolic Activation: None, Method: Preincubation", "result": "inactive; negative"}, {"measurement": "mutagenic call", "setting": "Test System: Ames Salmonella typhimurium, Strain/Indicator: YG1042, Metabolic Activation: None, Method: Plate incorporation", "result": "inactive; negative"}, {"measurement": "mutagenic call", "setting": "Test System: Ames Salmonella typhimurium, Strain/Indicator: YG1042, Metabolic Activation: None, Method: Preincubation", "result": "inactive; negative"}, {"measurement": "mutagenic call", "setting": "Test System: MOUSE LYMPHOMA, Strain/Indicator: L5178Y (TK+/TK-), Metabolic Activation: RAT, LIVER, S-9, AROCLOR 1254, Method: SUSPENSION/PLATE", "result": "active; positive"}, {"measurement": "mutagenic call", "setting": "Test System: MOUSE LYMPHOMA, Strain/Indicator: L5178Y (TK+/TK-), Method: SUSPENSION/PLATE", "result": "inactive; negative"}, {"measurement": "mutagenic call", "setting": "Test System: UDS MOUSE HEPATOCYTES, Strain/Indicator: THY INCORP, Metabolic Activation: NONE, Method: IN-VIVO-IN VITRO", "result": "inactive; negative"}, {"measurement": "mutagenic call", "setting": "Test System: UDS RAT HEPATOCYTES, Strain/Indicator: THYMIDINE INCORPORATION, Metabolic Activation: NONE, Method: LIQUID SCINTILLATION COUNTING", "result": "active; positive"}, {"measurement": "mutagenic call", "setting": "Test System: UDS RAT HEPATOCYTES, Strain/Indicator: THYMIDINE INCORPORATION, Metabolic Activation: RAT LIVER S-9, AROCLOR 1254, Method: LIQUID SCINTILLATION COUNTING", "result": "active; positive"}]}]}
